Measured values reported in US9809623B2, “α4β7 peptide monomer and dimer antagonists” (Protagonist Therapeutics, Inc., priority 2014, dated 2017).
Numbered stars: 1 amine (or outer) side, 2 acyl side, 3 side chain; on linkers, the order of the positions; unused ones are H or OH. Bridge positions count the residues as written; N and C are the ends. Square brackets hold non-standard residues; d marks the D form. Peptide text beside a SMILES is read from it. I, II: the chains in the order shown. Phe(3,4-Cl2) = N[C@@H](Cc1ccc(Cl)c(Cl)c1)C(=O)O; Phe(4-COOH) = N[C@@H](Cc1ccc(C(=O)O)cc1)C(=O)O; Bip = N[C@@H](Cc1ccc(-c2ccccc2)cc1)C(=O)O; 1Nal = N[C@@H](Cc1cccc2ccccc12)C(=O)O; 2Nal = N[C@@H](Cc1ccc2ccccc2c1)C(=O)O; Diglycolyl = O=C(COCC(=O)[*:2])[*:1]; NMeR = CN[C@@H](CCCNC(=N)N)C(=O)O; NMeE = CN[C@@H](CCC(=O)O)C(=O)O; β3hE = N[C@@H](CCC(=O)O)CC(=O)O; Pen = CC(C)(S)[C@H](N)C(=O)O; hLeu = CC(C)CC[C@H](N)C(=O)O; Dab = NCC[C@H](N)C(=O)O

Each compound was assayed against α4β7 (Homo sapiens, UniProt P13612+P26010) (assay: α4β7-MAdCAM Cell Adhesion Assay (RPMI 8866 human cells)). Conditions: Table 3-B, Potency (α4β7); range classes; read-out: α4β7 cell (Hu) IC50.
Format: cell-based
Parameters: host or cells: RPMI 8866 human B lymphoblastoid cells
Method: RPMI 8866 human cells (Sigma #95041316) were cultured in RPMI 1640 HEPES medium (Invitrogen #22400-089) supplemented with 10% serum (Fetal Bovine Serum, Invitrogen #16140-071), 1 mM sodium pyruvate (Invitrogen #11360-070), 2 mM L-glutamine (Invitrogen #25030-081) and Penicillin-Streptomycin (Invitrogen #15140-122) at 100 units of penicillin and 100 μg of streptomycin per ml. The cells were washed two times in DMEM medium (ATCC #30-2002) supplemented with 0.1% BSA, 10 mM HEPES pH 7 and 1 mM MnCl2. The cells were re-suspended in supplemented DMEM medium at a density of 4×10^6 cells/ml.
A Nunc MaxiSorp plate was coated with rh MAdCAM-1/Fc Chimera (R&D #6065-MC) at 200 ng per well in 50 ul per well in 1×PBS and incubated at 4° C. overnight. The solution was then removed by shaking, blocked with 250 ul per well PBS containing 1% BSA, and incubated at 37° C. for 1 hr. The solution was removed by shaking. Peptides were diluted by serial dilution in a final volume of 50 ul per well (2× concentration). To each well, 50 ul of cells (200,000 cells) were added and the plate was incubated at 37° C., 5% CO2 for 30-45 min to allow cell adhesion. The wells were washed manually three times (100 ul per wash) with supplemented DMEM. After the final wash, 100 ul/well of supplemented DMEM and 10 ul/well of MTT reagent (ATTC cat#30-1010K) were added. The plate was incubated at 37° C., 5% CO2 for 2-3 hrs until a purple precipitate was visible. 100 ul of Detergent Reagent (ATTC cat#30-1010K) was added to each well. The plate was covered from the light, wrapped in Parafilm to prevent evaporation, and left overnight at room temperature in the dark. The plate was shaken for 5 min and the absorbance at 570 nm was measured. To calculate the dose response, the absorbance value of control wells not containing cells was subtracted from each test well.

Chain of α4β7 (P13612 34-1032): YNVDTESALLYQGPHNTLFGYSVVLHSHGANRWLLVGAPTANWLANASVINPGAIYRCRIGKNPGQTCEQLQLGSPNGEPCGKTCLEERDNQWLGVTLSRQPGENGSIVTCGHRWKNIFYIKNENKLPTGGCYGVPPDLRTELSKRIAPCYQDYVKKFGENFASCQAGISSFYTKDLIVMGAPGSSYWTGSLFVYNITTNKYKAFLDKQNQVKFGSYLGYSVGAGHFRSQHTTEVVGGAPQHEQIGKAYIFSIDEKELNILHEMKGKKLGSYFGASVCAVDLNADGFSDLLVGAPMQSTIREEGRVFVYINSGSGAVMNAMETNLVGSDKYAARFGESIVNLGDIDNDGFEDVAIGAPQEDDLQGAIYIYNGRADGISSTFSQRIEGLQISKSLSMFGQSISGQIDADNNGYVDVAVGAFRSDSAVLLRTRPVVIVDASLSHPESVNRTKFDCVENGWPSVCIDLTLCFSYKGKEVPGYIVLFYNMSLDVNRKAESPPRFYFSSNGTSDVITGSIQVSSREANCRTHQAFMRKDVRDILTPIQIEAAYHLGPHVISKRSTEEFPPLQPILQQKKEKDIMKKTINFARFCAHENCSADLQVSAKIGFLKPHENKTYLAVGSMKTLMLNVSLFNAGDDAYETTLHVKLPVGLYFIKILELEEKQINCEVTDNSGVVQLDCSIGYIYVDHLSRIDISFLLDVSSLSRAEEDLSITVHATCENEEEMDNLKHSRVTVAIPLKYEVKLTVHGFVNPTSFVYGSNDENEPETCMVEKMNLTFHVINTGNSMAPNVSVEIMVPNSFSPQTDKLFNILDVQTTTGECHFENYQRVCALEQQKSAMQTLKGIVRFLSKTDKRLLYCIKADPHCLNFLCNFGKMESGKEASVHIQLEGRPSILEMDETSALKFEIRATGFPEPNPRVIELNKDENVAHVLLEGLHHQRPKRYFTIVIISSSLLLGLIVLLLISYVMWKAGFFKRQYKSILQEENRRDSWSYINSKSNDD
Chain of α4β7 (P26010 20-798): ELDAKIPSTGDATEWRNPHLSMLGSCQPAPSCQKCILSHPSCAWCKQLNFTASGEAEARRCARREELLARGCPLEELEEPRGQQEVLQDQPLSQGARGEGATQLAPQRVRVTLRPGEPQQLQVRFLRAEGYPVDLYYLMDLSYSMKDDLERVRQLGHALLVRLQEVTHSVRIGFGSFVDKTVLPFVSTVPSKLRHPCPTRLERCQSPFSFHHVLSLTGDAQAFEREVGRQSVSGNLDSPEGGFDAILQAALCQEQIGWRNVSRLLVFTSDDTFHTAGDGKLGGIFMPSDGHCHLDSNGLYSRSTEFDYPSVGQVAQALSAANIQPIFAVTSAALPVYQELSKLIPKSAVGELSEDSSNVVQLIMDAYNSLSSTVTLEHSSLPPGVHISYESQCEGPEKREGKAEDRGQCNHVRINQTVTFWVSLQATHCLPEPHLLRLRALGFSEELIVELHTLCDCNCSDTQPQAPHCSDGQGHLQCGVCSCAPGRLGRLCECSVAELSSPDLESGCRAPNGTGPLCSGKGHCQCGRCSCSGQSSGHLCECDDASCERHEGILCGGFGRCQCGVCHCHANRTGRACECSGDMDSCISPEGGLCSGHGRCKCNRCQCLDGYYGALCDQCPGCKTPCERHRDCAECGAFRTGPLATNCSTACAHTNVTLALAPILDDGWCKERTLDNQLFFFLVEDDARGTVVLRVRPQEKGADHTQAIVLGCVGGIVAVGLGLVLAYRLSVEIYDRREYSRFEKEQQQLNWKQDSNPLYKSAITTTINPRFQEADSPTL

Compound	IC50 [nM]
CC(=O)N[C@@H]1C(=O)N(C)[C@@H](CCCNC(=N)N)C(=O)N[C@@H](CO)C(=O)N[C@@H](CC(=O)O)C(=O)N[C@@H]([C@@H](C)O)C(=O)N[C@@H](CC(C)C)C(=O)N[C@H](C(=O)N[C@@H](Cc2c[nH]c3ccccc23)C(=O)N[C@@H](CCC(=O)O)C(=O)N[C@@H](CCNC(=O)COCC(=O)NCC[C@H](NC(=O)[C@H](CCC(=O)O)NC(=O)[C@H](Cc2c[nH]c3ccccc23)NC(=O)[C@H]2NC(=O)[C@H](CC(C)C)NC(=O)[C@H]([C@@H](C)O)NC(=O)[C@H](CC(=O)O)NC(=O)[C@H](CO)NC(=O)[C@H](CCCNC(=N)N)N(C)C(=O)[C@@H](NC(C)=O)C(C)(C)SSC2(C)C)C(N)=O)C(N)=O)C(C)(C)SSC1(C)C [compound 97] (I: Ac-[Pen][NMeR]SDTL[Pen]WE[Dab]-NH2 / II: Ac-[Pen][NMeR]SDTL[Pen]WE[Dab]-NH2; disulfide I:1-I:7, II:1-II:7; linker I:10-II:10 via Diglycolyl)	< 10
CC(=O)N[C@@H]1C(=O)N(C)[C@@H](CCCNC(=N)N)C(=O)N[C@@H](CO)C(=O)N[C@@H](CC(=O)O)C(=O)N[C@@H]([C@@H](C)O)C(=O)N[C@@H](CC(C)C)C(=O)N[C@H](C(=O)N[C@@H](Cc2c[nH]cn2)C(=O)N[C@@H](CCC(=O)O)C(=O)N[C@H](CCCCNC(=O)COCC(=O)NCCCC[C@@H](NC(=O)[C@H](CCC(=O)O)NC(=O)[C@H](Cc2c[nH]cn2)NC(=O)[C@H]2NC(=O)[C@H](CC(C)C)NC(=O)[C@H]([C@@H](C)O)NC(=O)[C@H](CC(=O)O)NC(=O)[C@H](CO)NC(=O)[C@H](CCCNC(=N)N)N(C)C(=O)[C@@H](NC(C)=O)C(C)(C)SSC2(C)C)C(N)=O)C(N)=O)C(C)(C)SSC1(C)C [compound 25] (I: Ac-[Pen][NMeR]SDTL[Pen]HE[dK]-NH2 / II: Ac-[Pen][NMeR]SDTL[Pen]HE[dK]-NH2; disulfide I:1-I:7, II:1-II:7; linker I:10-II:10 via Diglycolyl)	10 to 25
CC(=O)N[C@@H]1C(=O)N(C)[C@@H](CCCNC(=N)N)C(=O)N[C@@H](CO)C(=O)N[C@@H](CC(=O)O)C(=O)N[C@@H](CCC(C)C)C(=O)N[C@@H](CC(C)C)C(=O)N[C@H](C(=O)N[C@@H](Cc2ccc3ccccc3c2)C(=O)N[C@H](CCC(=O)O)C(N)=O)C(C)(C)SSC1(C)C [compound 161] (Ac-[Pen][NMeR]SD[hLeu]L[Pen][2Nal][dE]-NH2; disulfide 1-7)	1000 to 10000
CC(=O)N[C@@H]1C(=O)N(C)[C@@H](CCCNC(=N)N)C(=O)N[C@@H](CO)C(=O)N[C@@H](CC(=O)O)C(=O)N[C@@H]([C@@H](C)O)C(=O)N[C@@H](CC(C)C)C(=O)N[C@H](C(=O)N[C@@H](Cc2c[nH]c3ccccc23)C(=O)N(C)[C@@H](CCC(=O)O)C(=O)N[C@H](CCCCNC(=O)COCC(=O)NCCCC[C@@H](NC(=O)[C@H](CCC(=O)O)N(C)C(=O)[C@H](Cc2c[nH]c3ccccc23)NC(=O)[C@H]2NC(=O)[C@H](CC(C)C)NC(=O)[C@H]([C@@H](C)O)NC(=O)[C@H](CC(=O)O)NC(=O)[C@H](CO)NC(=O)[C@H](CCCNC(=N)N)N(C)C(=O)[C@@H](NC(C)=O)C(C)(C)SSC2(C)C)C(N)=O)C(N)=O)C(C)(C)SSC1(C)C [compound 31] (I: Ac-[Pen][NMeR]SDTL[Pen]W[NMeE][dK]-NH2 / II: Ac-[Pen][NMeR]SDTL[Pen]W[NMeE][dK]-NH2; disulfide I:1-I:7, II:1-II:7; linker I:10-II:10 via Diglycolyl)	50 to 100
CC(=O)N[C@@H]1C(=O)N(C)[C@@H](CCCNC(=N)N)C(=O)N[C@@H](CO)C(=O)N[C@@H](CC(=O)O)C(=O)N[C@@H]([C@@H](C)O)C(=O)N[C@@H](CC(C)C)C(=O)N[C@H](C(=O)N[C@@H](Cc2cccc3ccccc23)C(=O)N[C@H](Cc2c[nH]cn2)C(=O)N[C@H](CCCCNC(=O)COCC(=O)NCCCC[C@@H](NC(=O)[C@@H](Cc2c[nH]cn2)NC(=O)[C@H](Cc2cccc3ccccc23)NC(=O)[C@H]2NC(=O)[C@H](CC(C)C)NC(=O)[C@H]([C@@H](C)O)NC(=O)[C@H](CC(=O)O)NC(=O)[C@H](CO)NC(=O)[C@H](CCCNC(=N)N)N(C)C(=O)[C@@H](NC(C)=O)C(C)(C)SSC2(C)C)C(N)=O)C(N)=O)C(C)(C)SSC1(C)C [compound 112] (I: Ac-[Pen][NMeR]SDTL[Pen][1Nal][dH][dK]-NH2 / II: Ac-[Pen][NMeR]SDTL[Pen][1Nal][dH][dK]-NH2; disulfide I:1-I:7, II:1-II:7; linker I:10-II:10 via Diglycolyl)	50 to 100
CC(=O)N[C@@H]1C(=O)N(C)[C@@H](CCCNC(=N)N)C(=O)N[C@@H](CO)C(=O)N[C@@H](CC(=O)O)C(=O)N[C@@H]([C@@H](C)O)C(=O)N[C@@H](CCC(N)=O)C(=O)N[C@H](C(=O)N[C@@H](Cc2ccc3ccccc3c2)C(=O)N[C@H](CCC(=O)O)C(N)=O)C(C)(C)SSC1(C)C [compound 163] (Ac-[Pen][NMeR]SDTQ[Pen][2Nal][dE]-NH2; disulfide 1-7)	1000 to 10000
CC(=O)N[C@@H]1C(=O)N(C)[C@@H](CCCNC(=N)N)C(=O)N[C@@H](CO)C(=O)N[C@@H](CC(=O)O)C(=O)N[C@@H]([C@@H](C)O)C(=O)N[C@@H](CC(C)C)C(=O)N[C@H](C(=O)N[C@@H](Cc2ccc(-c3ccccc3)cc2)C(=O)N[C@@H](CCC(=O)O)CC(=O)N[C@H](CCCCNC(=O)COCC(=O)NCCCC[C@@H](NC(=O)C[C@H](CCC(=O)O)NC(=O)[C@H](Cc2ccc(-c3ccccc3)cc2)NC(=O)[C@H]2NC(=O)[C@H](CC(C)C)NC(=O)[C@H]([C@@H](C)O)NC(=O)[C@H](CC(=O)O)NC(=O)[C@H](CO)NC(=O)[C@H](CCCNC(=N)N)N(C)C(=O)[C@@H](NC(C)=O)C(C)(C)SSC2(C)C)C(N)=O)C(N)=O)C(C)(C)SSC1(C)C [compound 135] (I: Ac-[Pen][NMeR]SDTL[Pen][Bip][β3hE][dK]-NH2 / II: Ac-[Pen][NMeR]SDTL[Pen][Bip][β3hE][dK]-NH2; disulfide I:1-I:7, II:1-II:7; linker I:10-II:10 via Diglycolyl)	< 10
CC(=O)N[C@@H]1C(=O)N(C)[C@@H](CCCNC(=N)N)C(=O)N[C@@H](CO)C(=O)N[C@@H](CC(=O)O)C(=O)N[C@@H]([C@@H](C)O)C(=O)N[C@@H](CC(C)C)C(=O)N[C@H](C(=O)N[C@@H](Cc2ccc(Cl)c(Cl)c2)C(=O)N[C@H](CCC(=O)O)C(=O)N[C@H](CCCCNC(=O)COCC(=O)NCCCC[C@@H](NC(=O)[C@@H](CCC(=O)O)NC(=O)[C@H](Cc2ccc(Cl)c(Cl)c2)NC(=O)[C@H]2NC(=O)[C@H](CC(C)C)NC(=O)[C@H]([C@@H](C)O)NC(=O)[C@H](CC(=O)O)NC(=O)[C@H](CO)NC(=O)[C@H](CCCNC(=N)N)N(C)C(=O)[C@@H](NC(C)=O)C(C)(C)SSC2(C)C)C(N)=O)C(N)=O)C(C)(C)SSC1(C)C [compound 102] (I: Ac-[Pen][NMeR]SDTL[Pen][Phe(3,4-Cl2)][dE][dK]-NH2 / II: Ac-[Pen][NMeR]SDTL[Pen][Phe(3,4-Cl2)][dE][dK]-NH2; disulfide I:1-I:7, II:1-II:7; linker I:10-II:10 via Diglycolyl)	100 to 500
CC(=O)N[C@@H]1C(=O)N(C)[C@@H](CCCNC(=N)N)C(=O)N[C@@H](CO)C(=O)N[C@@H](CC(=O)O)C(=O)N[C@@H]([C@@H](C)O)C(=O)N[C@@H](CC(C)C)C(=O)N[C@H](C(=O)N[C@@H](Cc2ccc(C(=O)O)cc2)C(=O)N[C@H](CCC(=O)O)C(=O)N[C@H](CCCCNC(=O)COCC(=O)NCCCC[C@@H](NC(=O)[C@@H](CCC(=O)O)NC(=O)[C@H](Cc2ccc(C(=O)O)cc2)NC(=O)[C@H]2NC(=O)[C@H](CC(C)C)NC(=O)[C@H]([C@@H](C)O)NC(=O)[C@H](CC(=O)O)NC(=O)[C@H](CO)NC(=O)[C@H](CCCNC(=N)N)N(C)C(=O)[C@@H](NC(C)=O)C(C)(C)SSC2(C)C)C(N)=O)C(N)=O)C(C)(C)SSC1(C)C [compound 100] (I: Ac-[Pen][NMeR]SDTL[Pen][Phe(4-COOH)][dE][dK]-NH2 / II: Ac-[Pen][NMeR]SDTL[Pen][Phe(4-COOH)][dE][dK]-NH2; disulfide I:1-I:7, II:1-II:7; linker I:10-II:10 via Diglycolyl)	< 10
CC(=O)N[C@@H]1C(=O)N(C)[C@@H](CCCNC(=N)N)C(=O)N[C@@H](CO)C(=O)N[C@@H](CC(=O)O)C(=O)N[C@@H]([C@@H](C)O)C(=O)N[C@@H](Cc2ccccc2)C(=O)N[C@H](C(=O)N[C@@H](Cc2ccc3ccccc3c2)C(=O)N[C@H](CCC(=O)O)C(N)=O)C(C)(C)SSC1(C)C [compound 162] (Ac-[Pen][NMeR]SDTF[Pen][2Nal][dE]-NH2; disulfide 1-7)	1000 to 10000
